These results are taken from patent US12102648B2, “Orally-bioavailable nucleoside analogs” (priority 2021, dated 2024).

One may read the Papp A→B as the apparent permeability from the apical to the basolateral side of a cell layer. A word on the Papp B→A: it is the apparent permeability from the basolateral to the apical side of a cell layer.

The data set in a line: in vitro. The class given is in vitro ADME. The settings on record: human. As to the method: The bidirectional permeability of compounds across the Caco-2 cell monolayer was assessed. The Caco-2 model is a widely used in vitro model for small intestinal absorption and potential for efflux.
Cell culture. Caco-2 cells were grown in DMEM supplemented with 10% fetal bovine serum (FBS), 1% Penicillin-Streptomycin and 1% MEM NEAA. The cells were incubated at 37° C., 5% CO2/95% air and saturated humidity. After reaching 80-90% confluency, the cells were gently detached with trypsin. Cells at passage 39 were seeded on the 24-well BD insert system at the density of 8×10^4 cells/cm^2 and cultured for 19 days with medium changed every 2-3 days. Measure the transepithelial electrical resistance (TEER) value of each well. The wells can be used only when their TEER values are greater than 600 Ohms/cm^2.
Transport assay. After removing the cell culture medium from the 24-well insert plate, the cells were rinsed with warm transport buffer. Appropriate dosing and receiving solutions were applied to the donor and receiver chambers to initiate the transport assay in apical to basolateral (A to B) or basolateral to apical (B to A) directions ([…] for apical and basolateral wells, respectively). Duplicate wells in each direction were used for the test compound and control compound. The plate was incubated in CO2 incubator at 37° C., with 5% CO2/95% air and saturated humidity without shaking. The sample after 10-minute incubation was used as the T0 sample, and the sample after 90-minute incubation was used as the T90 sample. To and T90 samples were collected from the donor and receiver side of each well at the designed timepoint, mixed with the transport buffer and acetonitrile/MeOH (1:1, v/v) and the internal standard for LC/MS/MS analysis. All samples were vortexed and centrifuged at 4000 rpm at 4° C. for 15 minutes, diluted with pure water and stored at 4° C. before bioanalysis by LC/MS/MS.
Sample analysis. The concentrations of test compounds and control compounds in Caco-2 cells were quantitatively determined by LC/MS/MS method after protein precipitation.
Calculations. The apparent permeability (Papp, cm/s), efflux ratio (ER) and recovery parameters were calculated for Caco-2 drug transport assay using the following equations:
[formula] [formula] where VR is the solution volume in the receiver chamber (0.4 mL on the apical side, 1.2 mL on the basolateral side); Area is the surface area for the insert membrane, i.e., 0.3 cm^2 for the area of the monolayer; Time is incubation time, expressed in seconds, i.e., 5400 s (90 min) for the current experiment; Co is the initial concentration of test compound or peak area ratio of control compounds in the donor chamber (μM); VD is the volume in the donor chambers (0.4 mL on the apical side, 1.2 mL on the basolateral side); CD and CR are the final concentrations of test compounds or peak area ratio of control compounds in donor and receiver chambers, respectively.
Compounds with Papp<1.0 are classified as low permeability, Papp between 1-10 are classified as medium permeability, and Papp≥10 are classified as high permeability. An efflux ratio (ER)>2 indicates the compounds are potential substrates for intestinal cell efflux transporters.

The mark [1] stands for this setting: Caco-2 monolayer, apical to basolateral, 90-minute incubation, read-out: Papp, A-B.
[2] abbreviates: Caco-2 monolayer, basolateral to apical, 90-minute incubation, read-out: Papp, B-A.
Where [3] appears, read: Caco-2 monolayer, ER>2 indicates potential efflux transporter substrate, read-out: ER (efflux ratio).

Like-named read-outs stand apart in the source and are kept apart here.

As to `CC(=O)OCOC(=O)Nc1ncnn2c([C@]3(C#N)O[C@H](COC(=O)CC4(N)CCCCC4)[C@@H](O)[C@H]3O)ccc12` [Compound 363, ((2R,3S,4R,5R)-5-(4-(((acetoxymethoxy)carbonyl)amino)pyrrolo[2,1-f][1,2,4]triazin-7-yl)-5-cyano-3,4-dihydroxytetrahydrofuran-2-yl)methyl 2-(1-aminocyclohexyl)acetate], where the note is “Caco-2”, the apparent permeability from apical to basolateral (Papp A→B) at 90 min stood at 0.7 nm/s, the basolateral-to-apical permeability (Papp B→A) at 90 min came out at 0.2 nm/s and the efflux ratio at 90 min came to 0.33.

Take `CC(=O)O[C@@H]1[C@H](OC(=O)[C@@H](N)C(C)C)[C@@H](COC(=O)Cc2ccccc2)O[C@@]1(C#N)c1ccc2c(N)ncnn12` [Compound 343, (2R,3R,4R,5R)-4-acetoxy-5-(4-aminopyrrolo[2,1-f][1,2,4]triazin-7-yl)-5-cyano-2-((2-phenylacetoxy)methyl)tetrahydrofuran-3-yl L-valinate]: the Papp A→B at 90 min under setting [1] worked out at 12 nm/s. Also, the Papp B→A at 90 min under setting [2] was 65 nm/s. Under setting [3], the efflux ratio at 90 min stood at 5.6.

Turning to `CCC(=O)OC[C@H]1O[C@@](C#N)(c2ccc3c(N)ncnn23)[C@H](O)[C@@H]1O` [Compound 15, ((2R,3S,4R,5R)-5-(4-aminopyrrolo[2,1-f][1,2,4]triazin-7-yl)-5-cyano-3,4-dihydroxytetrahydrofuran-2-yl)methyl propionate], the Papp A→B at 90 min under setting [1] was determined as 29 nm/s. For the same compound, the basolateral-to-apical permeability (Papp B→A) at 90 min under setting [2] stood at 70 nm/s. Moreover, the efflux ratio at 90 min under setting [3] came to 3.4.

Consider `CCCCOC(=O)Nc1ncnn2c([C@]3(C#N)O[C@H](COC(=O)C(C)(C)C4CCCCC4)[C@@H](O)[C@H]3O)ccc12` [Compound 379, ((2R,3S,4R,5R)-5-(4-((butoxycarbonyl)amino)pyrrolo[2,1-f][1,2,4]triazin-7-yl)-5-cyano-3,4-dihydroxytetrahydrofuran-2-yl)methyl 2-cyclohexyl-2-methylpropanoate], for which, for the setting “Caco-2”, the Papp A→B at 90 min stood at 16 nm/s, the Papp B→A at 90 min stood at 25 nm/s and the efflux ratio at 90 min is 1.6.

`CC(C)C(=O)OC[C@H]1O[C@@](C#N)(c2ccc3c(NC(=O)c4ccccc4)ncnn23)[C@H](O)[C@@H]1O` [Compound 108, ((2R,3S,4R,5R)-5-(4-benzamidopyrrolo[2,1-f][1,2,4]triazin-7-yl)-5-cyano-3,4-dihydroxytetrahydrofuran-2-yl)methyl isobutyrate]: under “Caco-2”, the Papp A→B at 90 min was found to be 15 nm/s, the Papp B→A at 90 min is 20 nm/s and the efflux ratio at 90 min is 1.4.

As to `CCC(=O)OC[C@H]1O[C@@](C#N)(c2ccc3c(N)ncnn23)[C@H](O)[C@@H]1OC(=O)C(C)C` [Compound 70, [(2R,3S,4R,5R)-5-{4-aminopyrrolo[2,1-f][1,2,4]triazin-7-yl}-5-cyano-4-hydroxy-3-[(2-methylpropanoyl)oxy]oxolan-2-yl]methyl propanoate], under “Caco-2”, the Papp A→B at 90 min came to 18 nm/s, the Papp B→A at 90 min was found to be 16 nm/s and the efflux ratio at 90 min was 0.82.

Turning to `CC(C)CC(=O)OC[C@H]1O[C@@](C#N)(c2ccc3c(NC(=O)c4ccccc4)ncnn23)[C@H](O)[C@@H]1O` [Compound 109], under “Caco-2”, the Papp A→B at 90 min amounted to 14 nm/s, the Papp B→A at 90 min was determined as 13 nm/s and the efflux ratio at 90 min came out at 0.9.

As for `N#C[C@@]1(c2ccc3c(N)ncnn23)O[C@H](COC(=O)CC2CCOCC2)[C@@H](O)[C@H]1O` [Compound 257, ((2R,3S,4R,5R)-5-(4-aminopyrrolo[2,1-f][1,2,4]triazin-7-yl)-5-cyano-3,4-dihydroxytetrahydrofuran-2-yl)methyl 2-(tetrahydro-2H-pyran-4-yl)acetate], where the note is “Caco-2”, the Papp A→B at 90 min is 0.3 nm/s, the Papp B→A at 90 min was found to be 14 nm/s and the efflux ratio at 90 min amounted to 46.

As to `CCCC(=O)Nc1ncnn2c([C@]3(C#N)O[C@H](COC(=O)CC4CCCCC4)[C@@H](OCOC(=O)C(C)(C)C)[C@H]3O)ccc12` [Compound 409, (((2R,3S,4R,5R)-5-(4-butyramidopyrrolo[2,1-f][1,2,4]triazin-7-yl)-5-cyano-2-((2-cyclohexylacetoxy)methyl)-4-hydroxytetrahydrofuran-3-yl)oxy)methyl pivalate], where the note is “Caco-2”, the apical-to-basolateral permeability (Papp A→B) at 90 min was found to be 4.6 nm/s, the apparent permeability from basolateral to apical (Papp B→A) at 90 min was 1 nm/s and the efflux ratio at 90 min stood at 0.22.

Consider `N#C[C@@]1(c2ccc3c(N)ncnn23)O[C@H](COC(=O)CC2CCS(=O)(=O)CC2)[C@@H](O)[C@H]1O` [Compound 280, ((2R,3S,4R,5R)-5-(4-aminopyrrolo[2,1-f][1,2,4]triazin-7-yl)-5-cyano-3,4-dihydroxytetrahydrofuran-2-yl)methyl 2-(1,1-dioxidotetrahydro-2H-thiopyran-4-yl)acetate], for which, under “Caco-2”, the Papp A→B at 90 min amounted to 3.8 nm/s, the Papp B→A at 90 min amounted to 9.1 nm/s and the efflux ratio at 90 min was determined as 2.4.

For `CC(C)(C)[C@@H](N)C(=O)OC[C@H]1O[C@@](C#N)(c2ccc3c(N)ncnn23)[C@H](O)[C@@H]1OC(=O)CC1CCCCC1` [Compound 392], where the note is “Caco-2”, the Papp A→B at 90 min came out at 56 nm/s, the Papp B→A at 90 min is 164 nm/s and the efflux ratio at 90 min stood at 3.

Take `N#C[C@@]1(c2ccc3c(NC(=O)c4ccccc4)ncnn23)O[C@H](CO)[C@@H](OC(=O)Cc2ccccc2)[C@H]1O` [Compound 143, (2R,3S,4R,5R)-5-(4-benzamidopyrrolo[2,1-f][1,2,4]triazin-7-yl)-5-cyano-4-hydroxy-2-(hydroxymethyl)tetrahydrofuran-3-yl 2-phenylacetate]: the Papp A→B at 90 min under setting [1] came out at 6.7 nm/s. Moreover, the Papp B→A at 90 min under setting [2] came out at 1.2 nm/s. Also, the efflux ratio at 90 min under setting [3] was 0.18.

For `CCC(=O)O[C@H]1[C@@H](O)[C@](C#N)(c2ccc3c(N)ncnn23)O[C@@H]1COC(=O)[C@@H](N)C(C)C` [Compound 39, ((2R,3S,4R,5R)-5-(4-aminopyrrolo[2,1-f][1,2,4]triazin-7-yl)-5-cyano-4-hydroxy-3-(propionyloxy)tetrahydrofuran-2-yl)methyl L-valinate], the Papp A→B at 90 min under setting [1] turned out to be 2.3 nm/s. Besides, under setting [2], the Papp B→A at 90 min came out at 23 nm/s. Also, under setting [3], the efflux ratio at 90 min is 10.

Turning to `CCCCCOC(=O)Nc1ncnn2c([C@]3(C#N)O[C@H](COC(=O)CC(C)C)[C@@H](O)[C@H]3O)ccc12` [Compound 93, ((2R,3S,4R,5R)-5-cyano-3,4-dihydroxy-5-(4-(((pentyloxy)carbonyl)amino)pyrrolo[2,1-f][1,2,4]triazin-7-yl)tetrahydrofuran-2-yl)methyl 3-methylbutanoate], under “Caco-2”, the Papp A→B at 90 min was 28 nm/s, the Papp B→A at 90 min was 15 nm/s and the efflux ratio at 90 min is 0.54.

Turning to `CC(C)C(=O)O[C@H]1[C@@H](O)[C@](C#N)(c2ccc3c(N)ncnn23)O[C@@H]1COC(=O)CC1CCCCC1` [Compound 30, (2R,3S,4R,5R)-5-(4-aminopyrrolo[2,1-f][1,2,4]triazin-7-yl)-5-cyano-2-((2-cyclohexylacetoxy)methyl)-4-hydroxytetrahydrofuran-3-yl isobutyrate], where the note is “Caco-2”, the Papp A→B at 90 min came out at 73 nm/s, the Papp B→A at 90 min came to 71 nm/s and the efflux ratio at 90 min was determined as 1.

For the compound `C[C@@H](C(=O)OC[C@H]1O[C@@](C#N)(c2ccc3c(N)ncnn23)[C@H](O)[C@@H]1O)C1CCCCC1` [Compound 275, ((2R,3S,4R,5R)-5-(4-aminopyrrolo[2,1-f][1,2,4]triazin-7-yl)-5-cyano-3,4-dihydroxytetrahydrofuran-2-yl)methyl (R)-2-cyclohexylpropanoate], for the setting “Caco-2”, the Papp A→B at 90 min is 110 nm/s, the Papp B→A at 90 min was 160 nm/s and the efflux ratio at 90 min is 1.6.

In the case of `N#C[C@@]1(c2ccc3c(N)ncnn23)O[C@H](COC(=O)CC2(N)CCCCC2)[C@@H](OC(=O)CC2CCCCC2)[C@H]1O` [Compound 368, (2R,3S,4R,5R)-2-((2-(1-aminocyclohexyl)acetoxy)methyl)-5-(4-aminopyrrolo[2,1-f][1,2,4]triazin-7-yl)-5-cyano-4-hydroxytetrahydrofuran-3-yl 2-cyclohexylacetate], where the note is “Caco-2”, the Papp A→B at 90 min came out at 14 nm/s, the Papp B→A at 90 min amounted to 180 nm/s and the efflux ratio at 90 min was found to be 13.
